The values that follow are results of earlier work, collected in patent US20230150906A1, “DESOXYSCALINE DERIVATIVES WITH MODIFIED MESCALINE-LIKE ACTION” (Mind Medicine, Inc., priority 2021, published 2023).

Entries after “also recorded” stand apart in the source; their conditions may differ.

Data set [1] addresses D2 receptors (Homo sapiens, UniProt P14416).
The target of data set [2] is 5-HT2A receptor (Homo sapiens, UniProt P28223).
In data set [3] the target is 5-HT transporter (SERT) (Homo sapiens, UniProt P31645).
5-HT transporter (SERT), sequence (P31645 whole entry, species assumed): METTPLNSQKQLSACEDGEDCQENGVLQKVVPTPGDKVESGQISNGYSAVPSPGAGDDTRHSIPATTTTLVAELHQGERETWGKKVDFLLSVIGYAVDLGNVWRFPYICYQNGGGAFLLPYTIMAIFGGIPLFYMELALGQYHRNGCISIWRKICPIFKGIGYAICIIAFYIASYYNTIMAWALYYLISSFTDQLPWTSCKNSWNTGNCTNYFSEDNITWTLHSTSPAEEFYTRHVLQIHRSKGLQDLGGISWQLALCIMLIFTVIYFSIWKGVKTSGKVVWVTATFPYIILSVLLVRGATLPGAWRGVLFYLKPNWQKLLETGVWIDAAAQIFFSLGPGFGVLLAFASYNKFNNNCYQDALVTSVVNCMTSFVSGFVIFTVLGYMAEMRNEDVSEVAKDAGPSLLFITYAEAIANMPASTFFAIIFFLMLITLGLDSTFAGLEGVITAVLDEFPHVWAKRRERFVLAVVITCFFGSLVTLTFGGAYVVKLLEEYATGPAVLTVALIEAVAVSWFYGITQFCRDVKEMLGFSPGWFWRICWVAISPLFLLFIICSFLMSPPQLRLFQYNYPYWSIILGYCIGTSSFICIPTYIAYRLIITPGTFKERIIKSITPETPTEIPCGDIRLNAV
The target of data set [4] is serotonin 5-HT2A receptor (Homo sapiens, UniProt P28223).
serotonin 5-HT2A receptor, sequence (P28223 whole entry): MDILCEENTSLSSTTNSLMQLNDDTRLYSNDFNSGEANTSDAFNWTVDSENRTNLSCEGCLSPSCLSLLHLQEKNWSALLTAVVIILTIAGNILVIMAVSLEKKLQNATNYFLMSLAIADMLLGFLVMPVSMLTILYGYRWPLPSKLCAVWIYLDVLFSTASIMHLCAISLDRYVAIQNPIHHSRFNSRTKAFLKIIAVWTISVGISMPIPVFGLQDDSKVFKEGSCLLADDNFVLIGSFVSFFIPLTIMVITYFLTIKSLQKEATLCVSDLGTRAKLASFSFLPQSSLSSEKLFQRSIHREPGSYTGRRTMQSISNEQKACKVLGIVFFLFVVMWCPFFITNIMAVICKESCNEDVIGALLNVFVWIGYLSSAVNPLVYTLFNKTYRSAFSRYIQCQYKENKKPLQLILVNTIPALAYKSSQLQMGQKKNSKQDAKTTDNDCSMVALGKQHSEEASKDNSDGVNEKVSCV
Data set [5] deals with humans.
The conditions of data set [6]: humans.

5-HT2A receptor, sequence (P28223 whole entry): as above
D2 receptors, sequence (P14416 whole entry): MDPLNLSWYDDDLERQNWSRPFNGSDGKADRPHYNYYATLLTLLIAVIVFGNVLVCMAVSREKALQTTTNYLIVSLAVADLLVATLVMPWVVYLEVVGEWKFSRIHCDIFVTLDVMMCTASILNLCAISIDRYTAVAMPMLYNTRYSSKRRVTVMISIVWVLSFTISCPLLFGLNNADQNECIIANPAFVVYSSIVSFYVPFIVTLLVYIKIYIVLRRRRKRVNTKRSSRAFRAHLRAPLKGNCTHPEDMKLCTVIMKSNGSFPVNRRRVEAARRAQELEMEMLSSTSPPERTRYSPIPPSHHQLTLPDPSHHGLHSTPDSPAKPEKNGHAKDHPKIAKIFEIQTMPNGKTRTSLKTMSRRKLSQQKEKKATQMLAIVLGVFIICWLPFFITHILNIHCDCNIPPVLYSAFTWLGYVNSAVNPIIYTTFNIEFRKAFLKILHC

With `COc1cc(CCN)cc(OC)c1OC` [mescaline], the “affinity for D2 receptors” value in data set [1] is listed as “no affinity”. Besides, the “activity at the 5-HT2A receptor (agonism / stimulation)” value (“activity … (agonism / stimulation)” below) in data set [2] is on record as “agonists”. In addition, in data set [3], the “interaction with the SERT” value was “do not interact”. Also, the “5-HT2A receptor ligand strength” value in data set [4] is “very weak”. Moreover, in data set [5] (humans), the “dose needed to induce a full psychedelic experience” value was 200 to 800 mg. In data set [5] (humans, psychoactive doses), the “time of peak of subjective effects” value was 4 h and the “time until subjective effects appear” value was at most 30 min. The “duration of subjective effects” value in data set [5] (humans, psychoactive doses, dose-dependent) was 10 to 16 h. In addition, in data set [6], the plasma half-life entry is on record as “approximately 6 hours”.
On to `COc1cc(CCN)cc(OC)c1C` [DESOXY, 3,5-dimethoxy-4-methylphenethylamine], for which the “psychoactive effects in human” value in data set [5] (human) is on record as “has shown psychoactive effects in human”.
Consider `CN(C)CCc1c[nH]c2ccccc12` [DMT, N,N-dimethyltryptamine], for which the “activity … (agonism / stimulation)” value in data set [2] is “agonists”.
`CCN(CC)C(=O)[C@@H]1C=C2c3cccc4[nH]cc(c34)C[C@H]2N(C)C1` [LSD, lysergic acid diethylamide]: in data set [1], the “activity at D2 receptors” value is given as “has activity”. Also, the “activity … (agonism / stimulation)” value in data set [2] was “agonists; also recorded: potently stimulates”.
Regarding `CN(C)CCc1c[nH]c2cccc(O)c12` [Psilocin, psilocin], the “activity … (agonism / stimulation)” value in data set [2] is given as “stimulates”. Also, in data set [3], the “interaction with the SERT” value is listed as “inhibits”.
